The values that follow come from patent US10004701B2, “Methods and compositions for treating infection” (UNIVERSITY OF ROCHESTER, priority 2012, dated 2018).

Structures can show the parent of a compound that is named as a salt. Where two headings read alike, the source gives them in different places.

What all share (assay): AK assay 384-well format, Prestwick library screening
One assay concerns E. faecium. In kind it is cell-based, Enterococcus faecium. To be noted: Enterococcus faecium, 3 h, 50 μM final drug concentration.
The test system of assay [1] is S. aureus strain USA300-0114. The assay is classed as cell-based, Staphylococcus aureus. To be noted: Staphylococcus aureus, USA300, 3 h, 50 μM final drug concentration.
Another assay concerns K. pneumoniae. The assay is classed as cell-based, Klebsiella pneumoniae. To be noted: Klebsiella pneumoniae, 3 h, 50 μM final drug concentration.
Assay [2] relates to A. baumannii strain 98-37-09. In kind it is cell-based, Acinetobacter baumannii. The following applies: Acinetobacter baumannii, 983709, 3 h, 50 μM final drug concentration.
The next assay relates to P. aeruginosa. The assay is classed as cell-based, Pseudomonas aeruginosa. To be noted: Pseudomonas aeruginosa, 3 h, 50 μM final drug concentration.
The test system of a further assay is E. cloacae. In kind it is cell-based, Enterobacter cloacae. The following applies: Enterobacter cloacae, 3 h, 50 μM final drug concentration.
In the next assay the test system is E. coli. The assay is classed as cell-based, Escherichia coli. To be noted: Escherichia coli, 3 h, 50 μM final drug concentration.
Setting [3] is: 384-well format, cutoff for positive-scoring molecules 3-fold increase, read-out: AK-based Prestwick Library Screening Results, E. faecium (increase in extracellular AK activity).
The mark [4] stands for this setting: 384-well format, cutoff for positive-scoring molecules 3-fold increase, read-out: AK-based Prestwick Library Screening Results, S. aureus (increase in extracellular AK activity).
[5] abbreviates: 384-well format, cutoff for positive-scoring molecules 3-fold increase, read-out: AK-based Prestwick Library Screening Results, K. pneumoniae (increase in extracellular AK activity).
Where [6] appears, read: 384-well format, cutoff for positive-scoring molecules 3-fold increase, read-out: AK-based Prestwick Library Screening Results, A. baumannii (increase in extracellular AK activity).
Where [7] appears, read: 384-well format, cutoff for positive-scoring molecules 3-fold increase, read-out: AK-based Prestwick Library Screening Results, P. aeruginosa (increase in extracellular AK activity).
Where [8] appears, read: 384-well format, cutoff for positive-scoring molecules 3-fold increase, read-out: AK-based Prestwick Library Screening Results, E. cloacae (increase in extracellular AK activity).
Where [9] appears, read: 384-well format, cutoff for positive-scoring molecules 3-fold increase, read-out: AK-based Prestwick Library Screening Results, E. coli (increase in extracellular AK activity).
Where [10] appears, read: planktonic, cutoff for positive-scoring molecules 3-fold increase, read-out: AK-based Prestwick Library Screening Results, E. faecium (fold increase in extracellular AK activity).
The mark [11] stands for this setting: planktonic, cutoff for positive-scoring molecules 3-fold increase, read-out: AK-based Prestwick Library Screening Results, S. aureus (fold increase in extracellular AK activity).
[12] abbreviates: planktonic, cutoff for positive-scoring molecules 3-fold increase, read-out: AK-based Prestwick Library Screening Results, K. pneumoniae (fold increase in extracellular AK activity).
The mark [13] stands for this setting: planktonic, cutoff for positive-scoring molecules 3-fold increase, read-out: AK-based Prestwick Library Screening Results, A. baumannii (fold increase in extracellular AK activity).
[14] abbreviates: planktonic, cutoff for positive-scoring molecules 3-fold increase, read-out: AK-based Prestwick Library Screening Results, P. aeruginosa (fold increase in extracellular AK activity).
[15] abbreviates: planktonic, cutoff for positive-scoring molecules 3-fold increase, read-out: AK-based Prestwick Library Screening Results, E. cloacae (fold increase in extracellular AK activity).
Setting [16] is: planktonic, cutoff for positive-scoring molecules 3-fold increase, read-out: AK-based Prestwick Library Screening Results, E. coli (fold increase in extracellular AK activity).

In the case of `CC1=CC(=O)C2=C(C)C[C@H](O)[C@@H]3[C@H](OC(=O)[C@H]3C)[C@H]12` [Austricine hydrate], the fold induction at 50 µM stood at 1.1 in the assay with E. faecium (planktonic, […], read-out: AK-based Prestwick Library Screening Results, E. faecium (fold increase in extracellular AK activity)); 1.2 in assay [1] (planktonic, […], read-out: AK-based Prestwick Library Screening Results, S. aureus (fold increase in extracellular AK activity)); 1 in the assay on K. pneumoniae (planktonic, […], read-out: AK-based Prestwick Library Screening Results, K. pneumoniae (fold increase in extracellular AK activity)); 1 in assay [2] (planktonic, […], read-out: AK-based Prestwick Library Screening Results, A. baumannii (fold increase in extracellular AK activity)); 1.1 in the assay on P. aeruginosa (planktonic, […], read-out: AK-based Prestwick Library Screening Results, P. aeruginosa (fold increase in extracellular AK activity)); 1.3 in the assay with E. cloacae (planktonic, […], read-out: AK-based Prestwick Library Screening Results, E. cloacae (fold increase in extracellular AK activity)). The fold induction at 50 µM in the assay with E. coli (planktonic, […], read-out: AK-based Prestwick Library Screening Results, E. coli (fold increase in extracellular AK activity)) turned out to be 1.2.
For `C[C@@H]1CC[C@H]2[C@@H](C)C(=O)O[C@@H]3O[C@@]4(C)CC[C@@H]1[C@]32OO4` [Artemisinin], the fold induction at 50 µM amounted to 0.9 with E. faecium (planktonic E. faecium, cutoff for positive-scoring molecules 3-fold increase, read-out: AK-based Prestwick Library Screening Results, E. faecium (increase in extracellular AK activity)); 0.5 in assay [1] (planktonic S. aureus, cutoff for positive-scoring molecules 3-fold increase, read-out: AK-based Prestwick Library Screening Results, S. aureus (increase in extracellular AK activity)); 0.6 with K. pneumoniae (planktonic K. pneumoniae, cutoff for positive-scoring molecules 3-fold increase, read-out: AK-based Prestwick Library Screening Results, K. pneumoniae (increase in extracellular AK activity)); 0.7 in assay [2] (planktonic A. baumannii, cutoff for positive-scoring molecules 3-fold increase, read-out: AK-based Prestwick Library Screening Results, A. baumannii (increase in extracellular AK activity)); 0.6 with P. aeruginosa (planktonic P. aeruginosa, cutoff for positive-scoring molecules 3-fold increase, read-out: AK-based Prestwick Library Screening Results, P. aeruginosa (increase in extracellular AK activity)); 0.7 in the assay with E. cloacae (planktonic E. cloacae, cutoff for positive-scoring molecules 3-fold increase, read-out: AK-based Prestwick Library Screening Results, E. cloacae (increase in extracellular AK activity)). For the same compound, the fold induction at 50 µM in the assay with E. coli (planktonic E. coli, cutoff for positive-scoring molecules 3-fold increase, read-out: AK-based Prestwick Library Screening Results, E. coli (increase in extracellular AK activity)) amounted to 0.5.
In the case of `CCCCc1cc2ccccc2c(OCCN(C)C)n1` [Dimethisoquin hydrochloride], the fold induction at 50 µM with E. faecium (planktonic, cutoff for positive 3-fold increase, read-out: AK-based Prestwick Library Screening Results, E. faecium (fold increase in extracellular AK activity)) came out at 1; in assay [1] (planktonic, cutoff for positive 3-fold increase, read-out: AK-based Prestwick Library Screening Results, S. aureus (fold increase in extracellular AK activity)), 1.3; in the assay on K. pneumoniae (planktonic, cutoff for positive 3-fold increase, read-out: AK-based Prestwick Library Screening Results, K. pneumoniae (fold increase in extracellular AK activity)), 1.2; in assay [2] (planktonic, cutoff for positive 3-fold increase, read-out: AK-based Prestwick Library Screening Results, A. baumannii (fold increase in extracellular AK activity)), 1.5; with P. aeruginosa (planktonic, cutoff for positive 3-fold increase, read-out: AK-based Prestwick Library Screening Results, P. aeruginosa (fold increase in extracellular AK activity)), 1.2; in the assay with E. cloacae (planktonic, cutoff for positive 3-fold increase, read-out: AK-based Prestwick Library Screening Results, E. cloacae (fold increase in extracellular AK activity)), 1.5. For the same compound, in the assay with E. coli (planktonic, cutoff for positive 3-fold increase, read-out: AK-based Prestwick Library Screening Results, E. coli (fold increase in extracellular AK activity)), the fold induction at 50 µM was 1.3.
On to `CCCc1ncc(C[n+]2ccccc2C)c(N)n1` [Amprolium hydrochloride], for which the fold induction at 50 µM was 0.9 in the assay with E. faecium (setting [3]); 0.5 in assay [1] (setting [4]); 0.6 in the assay on K. pneumoniae (setting [5]); 0.5 in assay [2] (setting [6]); 0.4 in the assay on P. aeruginosa (setting [7]); 0.4 in the assay with E. cloacae (setting [8]). Further, in the assay on E. coli (setting [9]), the fold induction at 50 µM stood at 0.5.
For `NC[C@H]1O[C@H](O[C@H]2[C@H](O[C@@H]3O[C@H](CO)[C@@H](O)[C@H]3O)[C@@H](O)[C@H](N)C[C@@H]2N)[C@H](N)[C@@H](O)[C@@H]1O` [Ribostamycin sulfate salt], the fold induction at 50 µM in the assay with E. faecium (setting [10]) is 0.9; in assay [1] (setting [11]) it was 0.8; with K. pneumoniae (setting [12]) it was 0.7; in assay [2] (setting [13]), 0.8; with P. aeruginosa (setting [14]), 0.8; in the assay with E. cloacae (setting [15]), 1.2. Further, the fold induction at 50 µM in the assay with E. coli (setting [16]) stood at 0.9.
For the compound `Clc1cccc(Cl)c1N=C1NCCN1` [Clonidine hydrochloride], the fold induction at 50 µM turned out to be 0.9 with E. faecium (setting [3]); 0.5 in assay [1] (setting [4]); 0.5 in the assay with K. pneumoniae (setting [5]); 0.6 in assay [2] (setting [6]); 0.5 in the assay with P. aeruginosa (setting [7]); 0.6 in the assay on E. cloacae (setting [8]). The fold induction at 50 µM with E. coli (setting [9]) amounted to 0.5.
`NC(CO)C(=O)NNCc1ccc(O)c(O)c1O` (centres unmarked) [Benserazide hydrochloride]: the fold induction at 50 µM in the assay with E. faecium (cutoff for positive-scoring molecules 3-fold increase, read-out: AK-based Prestwick Library Screening Results, E. faecium (fold increase in extracellular AK activity)) amounted to 0.9; in assay [1] (cutoff for positive-scoring molecules 3-fold increase, read-out: AK-based Prestwick Library Screening Results, S. aureus (fold increase in extracellular AK activity)) it was 1.4; in the assay with K. pneumoniae (cutoff for positive-scoring molecules 3-fold increase, read-out: AK-based Prestwick Library Screening Results, K. pneumoniae (fold increase in extracellular AK activity)), 1.2; in assay [2] (cutoff for positive-scoring molecules 3-fold increase, read-out: AK-based Prestwick Library Screening Results, A. baumannii (fold increase in extracellular AK activity)) it was 1; in the assay on P. aeruginosa (cutoff for positive-scoring molecules 3-fold increase, read-out: AK-based Prestwick Library Screening Results, P. aeruginosa (fold increase in extracellular AK activity)) it was 1.1; in the assay on E. cloacae (cutoff for positive-scoring molecules 3-fold increase, read-out: AK-based Prestwick Library Screening Results, E. cloacae (fold increase in extracellular AK activity)), 1.8. For the same compound, in the assay on E. coli (cutoff for positive-scoring molecules 3-fold increase, read-out: AK-based Prestwick Library Screening Results, E. coli (fold increase in extracellular AK activity)), the fold induction at 50 µM turned out to be 1.3.
Take `CC(C)(C(=O)c1cccnc1)c1cccnc1` [Metyrapone]: the fold induction at 50 µM was 0.8 in the assay with E. faecium (setting [10]); 0.8 in assay [1] (setting [11]); 0.7 in the assay with K. pneumoniae (setting [12]); 1 in assay [2] (setting [13]); 1 in the assay with P. aeruginosa (setting [14]); 1.2 in the assay on E. cloacae (setting [15]). Further, the fold induction at 50 µM in the assay on E. coli (setting [16]) is 0.9.
